Reference: ChEMBL document CHEMBL4308841, “Synthesis, in vitro antiproliferative activity, and kinase inhibitory effects of pyrazole-containing diarylureas and diarylamides” (Eur J Med Chem, 2018)
pIC50: −log10 of the molar value.

Assays:
[1] = tested on: SW-620; assay: Growth inhibition of human SW620 cells assessed as cell growth at 100 uM incubated for 48 hrs by sulforhodamine B assay relative to control; format: functional; conditions: SW-620, 48 h, read-out: Activity
[2] = tested on: BT-549; assay: Growth inhibition of human BT549 cells incubated for 48 hrs by sulforhodamine B assay; format: functional, cell-based; conditions: BT-549, 48 h
[3] = tested on: UACC-257; assay: Growth inhibition of human UACC257 cells assessed as cell growth at 100 uM incubated for 48 hrs by sulforhodamine B assay relative to control; format: functional; conditions: UACC-257, 48 h, read-out: Activity
[4] = tested on: RPMI-8226; assay: Growth inhibition of human RPMI8226 cells incubated for 48 hrs by sulforhodamine B assay; format: functional, cell-based; conditions: RPMI-8226, 48 h
[5] = tested on: SK-OV-3; assay: Growth inhibition of human SKOV3 cells assessed as cell growth at 0.01 uM incubated for 48 hrs by sulforhodamine B assay relative to control; format: functional; conditions: SK-OV-3, 48 h, read-out: Activity
[6] = tested on: HT-29; assay: Growth inhibition of human HT-29 cells assessed as cell growth at 10 uM incubated for 48 hrs by sulforhodamine B assay relative to control; format: functional; conditions: HT-29, 48 h, read-out: Activity
[7] = tested on: CAKI-1; assay: Growth inhibition of human Caki1 cells assessed as cell growth at 0.1 uM incubated for 48 hrs by sulforhodamine B assay relative to control; format: functional; conditions: CAKI-1, 48 h, read-out: Activity
[8] = tested on: IGROV-1; assay: Growth inhibition of human IGROV1 cells assessed as cell growth at 0.1 uM incubated for 48 hrs by sulforhodamine B assay relative to control; format: functional; conditions: IGROV-1, 48 h, read-out: Activity
[9] = tested on: OVCAR-8; assay: Growth inhibition of human OVCAR8 cells incubated for 48 hrs by sulforhodamine B assay; format: functional, cell-based; conditions: OVCAR-8, 48 h
[10] = tested on: HOP-92; assay: Growth inhibition of human HOP92 cells assessed as cell growth at 10 uM incubated for 48 hrs by sulforhodamine B assay relative to control; format: functional; conditions: HOP-92, 48 h, read-out: Activity
[11] = read-out: LC50 (the source's name)
[12] = read-out: pLC50 (the source's name) (converted)

Row | Structure (SMILES) | growth at 100 µM [1] | GI50 ([2]; read-out: GI50) | CC50 [2, 11] | TGI ([2]; read-out: TGI) | GI50 ([2]; read-out: pGI50 (converted)) | CC50 [2, 12] | TGI ([2]; read-out: pTGI (converted)) | growth at 100 µM [3] | pIC50 [4] | GI50 ([4]; read-out: GI50) | CC50 [4, 11] | TGI ([4]; read-out: TGI) | CC50 [4, 12] | growth at 0.01 µM [5] | growth at 10 µM [6] | growth at 0.1 µM [7] | growth at 0.1 µM [8] | GI50 ([9]; read-out: GI50) | CC50 [9, 11] | TGI ([9]; read-out: TGI) | also measured
1 | COc1cc(Cl)cc(-c2nn(-c3cccc(NC(=O)Nc4ccc(Cl)c(C(F)(F)F)c4)c3)cc2-c2ccncc2)c1 | -58% | 2.38 µM | 25.8 µM | 65.5 µM | 2.4 µM | 28.8 µM | 6.61 µM | -86% | 6.40 | 0.402 µM | > 100 µM | 20.7 µM | > 100 µM | 104% | 5.57% | 99% | 99% | 0.739 µM | > 100 µM | 59.3 µM | GI50 ([4]; read-out: pGI50 (converted)): 0.398 µM; TGI ([4]; read-out: pTGI (converted)): 2.09 µM; GI50 ([9]; read-out: pGI50 (converted)): 0.741 µM; CC50 [9, 12]: > 100 µM; TGI ([9]; read-out: pTGI (converted)): 7.08 µM
2 | O=C(Nc1cccc(-n2cc(-c3ccncc3)c(-c3cc(O)cc(Cl)c3)n2)c1)Nc1ccc(Cl)c(Cl)c1 | -36% | 2.06 µM | > 100 µM | 52.2 µM | 2.04 µM | > 100 µM | 5.25 µM | -92% | 5.84 | 1.44 µM | > 100 µM | 43 µM | > 100 µM | 108% | – | 98% | 101% | 2.02 µM | > 100 µM | 50.6 µM | growth at 10 µM [10]: -30.5%; GI50 ([4]; read-out: pGI50 (converted)): 1.45 µM; TGI ([4]; read-out: pTGI (converted)): 4.27 µM; GI50 ([9]; read-out: pGI50 (converted)): 2 µM; CC50 [9, 12]: > 100 µM; TGI ([9]; read-out: pTGI (converted)): 5.01 µM
3 | O=C(Nc1cccc(-n2cc(-c3ccncc3)c(-c3cc(O)cc(Cl)c3)n2)c1)c1ccc(N2CCOCC2)c(C(F)(F)F)c1 | -19% | 4.21 µM | > 100 µM | > 100 µM | 4.17 µM | > 100 µM | > 100 µM | -27% | 6.40 | 0.396 µM | > 100 µM | 23.1 µM | > 100 µM | 102% | 16.9% | 93% | 103% | 15.4 µM | > 100 µM | > 100 µM | GI50 ([4]; read-out: pGI50 (converted)): 0.398 µM; TGI ([4]; read-out: pTGI (converted)): 2.29 µM; GI50 ([9]; read-out: pGI50 (converted)): 1.62 µM; CC50 [9, 12]: > 100 µM; TGI ([9]; read-out: pTGI (converted)): > 100 µM
4 | O=C(Nc1cccc(-n2cc(-c3ccncc3)c(-c3cc(O)cc(Cl)c3)n2)c1)c1cc(C(F)(F)F)cc(C(F)(F)F)c1 | 13% | 4.58 µM | > 100 µM | 48.8 µM | 4.68 µM | > 100 µM | 46.8 µM | -10% | 5.60 | 2.5 µM | > 100 µM | 12.7 µM | > 100 µM | 102% | 19.7% | 98% | 98% | 3.58 µM | > 100 µM | > 100 µM | GI50 ([4]; read-out: pGI50 (converted)): 2.51 µM; TGI ([4]; read-out: pTGI (converted)): 12.6 µM; GI50 ([9]; read-out: pGI50 (converted)): 3.55 µM; CC50 [9, 12]: > 100 µM; TGI ([9]; read-out: pTGI (converted)): > 100 µM
5 | O=C(Nc1cccc(-n2cc(-c3ccncc3)c(-c3cc(O)cc(Cl)c3)n2)c1)Nc1ccc(Cl)c(C(F)(F)F)c1 | -58% | 2.25 µM | 23.7 µM | 51.5 µM | 2.82 µM | 23.4 µM | 6.17 µM | -96% | 5.71 | 1.96 µM | > 100 µM | 50 µM | > 100 µM | 108% | 35.3% | 103% | 98% | 2.15 µM | 50.1 µM | 55.5 µM | GI50 ([4]; read-out: pGI50 (converted)): 1.95 µM; TGI ([4]; read-out: pTGI (converted)): 5.13 µM; GI50 ([9]; read-out: pGI50 (converted)): 2.14 µM; CC50 [9, 12]: 79.4 µM; TGI ([9]; read-out: pTGI (converted)): 5.62 µM
6 | COc1cc(Cl)cc(-c2nn(-c3cccc(NC(=O)c4cc(C(F)(F)F)cc(C(F)(F)F)c4)c3)cc2-c2ccncc2)c1 | – | – | – | – | – | – | – | – | – | – | – | – | – | – | – | – | – | – | – | – | growth at 10 µM [10]: 46.8%
7 | COc1cc(Cl)cc(-c2nn(-c3cccc(NC(=O)c4cccc(C(F)(F)F)c4)c3)cc2-c2ccncc2)c1 | 57% | > 100 µM | > 100 µM | > 100 µM | > 100 µM | > 100 µM | > 100 µM | 52% | 5.50 | 3.12 µM | > 100 µM | > 100 µM | > 100 µM | 102% | 42.5% | 94% | 100% | 5.58 µM | > 100 µM | > 100 µM | GI50 ([4]; read-out: pGI50 (converted)): 3.16 µM; TGI ([4]; read-out: pTGI (converted)): > 100 µM; GI50 ([9]; read-out: pGI50 (converted)): 6.92 µM; CC50 [9, 12]: > 100 µM; TGI ([9]; read-out: pTGI (converted)): > 100 µM
8 | COc1cc(Cl)cc(-c2nn(-c3cccc(NC(=O)Nc4cccc(C(F)(F)F)c4)c3)cc2-c2ccncc2)c1 | -11% | 2.22 µM | > 100 µM | 55 µM | 2.24 µM | > 100 µM | 5.62 µM | -72% | 6.37 | 0.43 µM | > 100 µM | 23 µM | > 100 µM | 92% | 5.75% | 104% | 96% | 1.12 µM | > 100 µM | 45.8 µM | growth at 10 µM [10]: -27.3%; GI50 ([4]; read-out: pGI50 (converted)): 0.427 µM; TGI ([4]; read-out: pTGI (converted)): 2.29 µM; GI50 ([9]; read-out: pGI50 (converted)): 1.12 µM; CC50 [9, 12]: > 100 µM; TGI ([9]; read-out: pTGI (converted)): 4.9 µM
9 | COc1cc(Cl)cc(-c2nn(-c3cccc(NC(=O)Nc4ccc(Cl)c(Cl)c4)c3)cc2-c2ccncc2)c1 | 7% | 2.52 µM | > 100 µM | 62.5 µM | 2.63 µM | > 100 µM | 8.32 µM | -36% | 6.19 | 0.652 µM | > 100 µM | 33.7 µM | > 100 µM | 100% | 7.39% | 102% | 101% | 2.3 µM | > 100 µM | 11.2 µM | GI50 ([9]; read-out: pGI50 (converted)): 2.29 µM; CC50 [9, 12]: > 100 µM; TGI ([9]; read-out: pTGI (converted)): 11.2 µM
10 | COc1cc(Cl)cc(-c2nn(-c3cccc(NC(=O)c4ccc(N5CCOCC5)c(C(F)(F)F)c4)c3)cc2-c2ccncc2)c1 | 22% | 5.9 µM | > 100 µM | > 100 µM | 89.1 µM | > 100 µM | > 100 µM | -18% | 5.82 | 1.5 µM | > 100 µM | > 100 µM | > 100 µM | 102% | 21.2% | 100% | 100% | 6.33 µM | > 100 µM | > 100 µM | GI50 ([4]; read-out: pGI50 (converted)): 1.51 µM; TGI ([4]; read-out: pTGI (converted)): > 100 µM; GI50 ([9]; read-out: pGI50 (converted)): 6.31 µM; CC50 [9, 12]: > 100 µM; TGI ([9]; read-out: pTGI (converted)): > 100 µM
11 | COc1cc(Cl)cc(-c2nn(-c3cccc(NC(=O)c4ccc(Cl)c(Cl)c4)c3)cc2-c2ccncc2)c1 | – | – | – | – | – | – | – | – | – | – | – | – | – | – | 56.4% | – | – | – | – | – | –
